Laboratory results taken from patent USRE38425E1, “Semicarbazones having CNS activity and pharmaceutical preparations containing same” (University of Saskatchewan Technologies, Inc., priority 1995, dated 2004).

Tests used:
rats [1] = assay: MES screen after oral administration to rats; conditions: oral administration to rats; for MES screen ED50: time t (h) per compound as in the table
rats [2] = assay: neurotoxicity screen after oral administration to rats; conditions: oral administration to rats; time t (h) per compound as in the table

| SMILES | MES screen 0.5 h: number of rats out of 4 which were protected (rats [1]; dose 50 mg/kg) | MES screen 1 h: number of rats out of 4 which were protected (rats [1]; dose 50 mg/kg, 1 h) | MES screen 2 h: number of rats out of 4 which were protected (rats [1]; dose 50 mg/kg, 2 h) | MES screen 4 h: number of rats out of 4 which were protected (rats [1]; dose 50 mg/kg, 4 h) | MES screen 2 h: number of rats out of 4 which were protected (rats [1]; dose 12.5 mg/kg, 2 h) | MES screen 4 h: number of rats out of 4 which were protected (rats [1]; dose 12.5 mg/kg, 4 h) | other results |
| --- | --- | --- | --- | --- | --- | --- | --- |
| NC(=O)NN=Cc1ccc(OC(=O)c2ccc(Cl)cc2)cc1 [15c] | – | – | – | – | – | – | MES screen: number of rats out of 4 which were protected (rats [1]; dose 12.5 mg/kg, 0.25 h): 1; MES screen: number of rats out of 4 which were protected (rats [1]; dose 12.5 mg/kg, 1 h): 1; MES screen: number of rats out of 4 which were protected (rats [1]; dose 12.5 mg/kg, 4 h): 2 |
| NC(=O)NN=Cc1ccc(OCc2ccccc2)cc1 [15d] | – | – | – | – | – | – | MES screen: number of rats out of 4 which were protected (rats [1]; dose 12.5 mg/kg, 1 h): 1; MES screen: number of rats out of 4 which were protected (rats [1]; dose 12.5 mg/kg, 2 h): 1 |
| NC(=O)NN=Cc1ccc(Oc2ccccc2)cc1 [Compound 4a] | 3 | 4 | 4 | 4 | – | – | – |
| NC(=O)NN=Cc1ccc(Oc2ccc(Cl)cc2)cc1 [Compound 4c] | 4 | 4 | 4 | 4 | – | – | MES screen 0.25 h: number of rats out of 4 which were protected (rats [1]; dose 50 mg/kg, 0.25 h): 4 |
| NC(=O)NN=Cc1ccc(Oc2ccc(Br)cc2)cc1 [Compound 4d] | 4 | 4 | 4 | 4 | – | – | MES screen 0.25 h: number of rats out of 4 which were protected (rats [1]; dose 50 mg/kg, 0.25 h): 1 |
| NC(=O)NN=Cc1ccc(Oc2ccc(-c3ccccc3)cc2)cc1 [Compound 4g] | – | – | – | – | 3 | 1 | – |
| COc1ccc(Oc2ccc(C=NNC(N)=O)cc2)cc1 [Compound 4h] | 4 | 4 | 4 | 4 | – | – | – |
| NC(=O)NN=Cc1ccc(Oc2ccc(Oc3ccccc3)cc2)cc1 [Compound 4i] | – | – | 1 | 1 | – | – | – |
| N#Cc1ccc(Oc2ccc(C=NNC(N)=O)cc2)cc1 [Compound 4j] | – | – | – | – | 4 | 4 | MES screen 0.25 h: number of rats out of 4 which were protected (rats [1]; dose 12.5 mg/kg, 0.25 h): 2; MES screen 0.5 h: number of rats out of 4 which were protected (rats [1]; dose 12.5 mg/kg): 4; MES screen 1 h: number of rats out of 4 which were protected (rats [1]; dose 12.5 mg/kg, 1 h): 4 |
| NC(=O)NN=Cc1ccc(Oc2ccc(F)cc2Br)cc1 [Compound 5m] | 4 | 4 | 4 | 4 | – | – | MES screen 0.25 h: number of rats out of 4 which were protected (rats [1]; dose 50 mg/kg, 0.25 h): 4 |
| CCc1ccc(Oc2ccc(C=NNC(N)=O)cc2)cc1 [Compound 5p] | – | – | – | – | 4 | 4 | MES screen 0.5 h: number of rats out of 4 which were protected (rats [1]; dose 12.5 mg/kg): 2; MES screen 1 h: number of rats out of 4 which were protected (rats [1]; dose 12.5 mg/kg, 1 h): 4; MES screen ED50 (rats [1]): 6.48 mg/kg |
| CCCc1ccc(Oc2ccc(C=NNC(N)=O)cc2)cc1 [Compound 5q] | – | – | – | – | 4 | 2 | MES screen 0.5 h: number of rats out of 4 which were protected (rats [1]; dose 12.5 mg/kg): 1; MES screen 1 h: number of rats out of 4 which were protected (rats [1]; dose 12.5 mg/kg, 1 h): 2; MES screen ED50 (rats [1]): 2.63 mg/kg; neurotoxicity screen TD50 (rats [2]): >500 mg/kg |
